Measurements from patent US9642854B2, “Flavanoid compounds and process for preparation thereof” (Council of Scientific & Industrial Research, priority 2009, dated 2017).
In brackets after ≈: the same amount, converted by molar mass. Where two headings read alike, the source gives them in different places.

What was measured:
H. pylori [1] = assay: Anti H. pylori screening by disc diffusion susceptibility assay; type: cell-based, Helicobacter pylori; details: for Inhibition zone diameter (score): 100 and 200 mg/disc (so in the source); for Inhibition zone diameter (score) / zone of inhibition at 100 µg/disc: 72 h; for zone of inhibition at 100 µg/disc: Helicobacter pylori, 100 and 200 μg/disc, majority of the strains, read-out: Activity class by inhibition zone diameter
Description: The discs were impregnated with […] of each of the compounds, dissolved either in ethanol or DMSO, and the zone of inhibition was measured after 72 h of growth under microaerophilic conditions at 37° C. Inhibition zone diameter ranging 10-20 mm was given a score of ^+, 20-30 mm as ^++ and that of >30 mm as ^+++, as obtained employing dose range of […]/disc. The detailed structural information of the molecules is provided under ‘Description of the Compounds’.
Methods and protocols for the determination of inhibition zone diameter are as stated under Experiment 1, and that of MIC values by microbroth dilution assay as in Experiment 3. ‘Nil’ means zone of inhibition below 10 mm.
The anti H. pylori activity of all 16 flavonoid molecules, 2 naturally isolated and 14 synthetic derivatives, was screened by disc diffusion sensitivity assay employing 2 clinical strains HP001 and HP002, and three standard strains ATCC® 700392, 43504 and 49503. A 0.5 mL inoculum (10^8 CFU/mL) for each bacterial strain tested was flooded on freshly prepared Brain Heart Infusion (BHI) agar plates supplemented with 7% FCS, 0.5% IsoVitalex and 0.0025% DENT® and the discs (5 mm diameter) containing different compounds or antibiotics (dissolved either in ethanol or DMSO) were placed on the agar surface. After incubation for 3 days in a microaerophilic atmosphere at 37° C., the diameter of the zone of inhibition was measured (Glupczynsky, 1996; McNulty et al., 2002).

H. pylori [2] = assay: Anti H. pylori spectrum (MIC) by agar dilution method; type: cell-based, Helicobacter pylori; details: for MIC50 / MIC: Helicobacter pylori; for MIC50: MIC against 50% of the strains of the panel, read-out: MIC50
Description: MIC was determined using agar dilution assay following the CLSI® guidelines. Six clinical isolates and four standard strains were used for this study. Five microlitre of freshly grown 3-day old culture (˜1×10^8 CFU/mL) was streaked in plates containing 2-fold serial dilution of the compounds ranging […], and incubated under microaerophilic condition at 37° C. After 72 h, the plates were inspected visually for absence of growth to assess the MIC values. The experiment was performed in duplicates. MIC50 is defined as the dose (μg/ml) required for killing 50% of the strains.
Plates contained two-fold serial dilutions of the compounds ranging from […]. Five microlitres of 3-day old freshly grown H. pylori culture (^˜10^8 CFU/mL) was inoculated onto drug-containing BHI agar plates supplemented with 7% FCS, 0.5% IsoVitalex and 0.0025% DENT®, which were then incubated for 3 days under microaerophilic condition at 37° C.

[3] = 72 h, panel of 6 clinical isolates and 4 standard strains, read-out: MIC Range
[4] = clinical strain HP001, read-out: MIC
[5] = clinical strain HP002, read-out: MIC
[6] = clinical strain HP003, read-out: MIC
[7] = clinical strain HP004, read-out: MIC
[8] = clinical strain HP005, read-out: MIC
[9] = clinical strain HP006, read-out: MIC
[10] = standard strain 43504, read-out: MIC
[11] = standard strain 43629, read-out: MIC
[12] = standard strain 49503, read-out: MIC
[13] = standard strain 700392, read-out: MIC
[14] = panel of 6 clinical isolates and 4 standard strains

SMILES	MIC50 (H. pylori [2]; 72 h)	MIC (H. pylori [2]; [3])	MIC50 (H. pylori [2])	MIC (H. pylori [2]; [4])	MIC (H. pylori [2]; [5])	MIC (H. pylori [2]; [6])	MIC (H. pylori [2]; [7])	MIC (H. pylori [2]; [8])	MIC (H. pylori [2]; [9])	MIC (H. pylori [2]; [10])	MIC (H. pylori [2]; [11])	MIC (H. pylori [2]; [12])	MIC (H. pylori [2]; [13])	Inhibition zone diameter (score) (H. pylori [1]; ATCC standard strain 43504)	Inhibition zone diameter (score) (H. pylori [1]; ATCC standard strain 49503)	Inhibition zone diameter (score) (H. pylori [1]; ATCC standard strain 700392)	Inhibition zone diameter (score) (H. pylori [1]; clinical strain HP001)	Inhibition zone diameter (score) (H. pylori [1]; clinical strain HP002)	other results
CN1CCN(CCCCOc2cc(O)c3c(=O)cc(-c4ccccc4)oc3c2)CC1 [NMC-3, 5-Hydroxy-7-[4-(4-methyl-piperazin-1-yl)-butoxy]-2-phenyl-chromen-4-one]	~25 µg/mL (≈ 61.2 µM)	6.25 to 25 µg/mL (≈ 15.3 to 61.2 µM)	25 µg/mL (≈ 61.2 µM)	25 µg/mL (≈ 61.2 µM)	25 µg/mL (≈ 61.2 µM)	< 12.5 µg/mL	< 12.5 µg/mL	< 12.5 µg/mL	< 12.5 µg/mL	25 µg/mL (≈ 61.2 µM)	25 µg/mL (≈ 61.2 µM)	25 µg/mL (≈ 61.2 µM)	25 µg/mL (≈ 61.2 µM)	+ (Inhibition zone diameter ranging 10-20 mm was given a score of ^+)	+ (Inhibition zone diameter ranging 10-20 mm was given a score of ^+)	+ (Inhibition zone diameter ranging 10-20 mm was given a score of ^+)	+ (Inhibition zone diameter ranging 10-20 mm was given a score of ^+)	++ (20-30 mm as ^++)	
O=c1cc(-c2ccccc2)oc2cc(OCCCCCCN3CCOCC3)cc(O)c12 [CHM-1, 5-Hydroxy-7-(6-morpholin-4-yl-hexyloxy)-2-phenyl-chromen-4-one]	~25 µg/mL (≈ 59 µM)	6.25 to 25 µg/mL (≈ 14.8 to 59 µM)	25 µg/mL (≈ 59 µM)	25 µg/mL (≈ 59 µM)	25 µg/mL (≈ 59 µM)	< 12.5 µg/mL	< 12.5 µg/mL	< 12.5 µg/mL	< 12.5 µg/mL	25 µg/mL (≈ 59 µM)	25 µg/mL (≈ 59 µM)	25 µg/mL (≈ 59 µM)	25 µg/mL (≈ 59 µM)	Nil (‘Nil’ means zone of inhibition below 10 mm)	+ (Inhibition zone diameter ranging 10-20 mm was given a score of ^+)	+ (Inhibition zone diameter ranging 10-20 mm was given a score of ^+)	+ (Inhibition zone diameter ranging 10-20 mm was given a score of ^+)	+ (Inhibition zone diameter ranging 10-20 mm was given a score of ^+)	
O=c1cc(-c2ccccc2)oc2cc(OCCCCN3CCOCC3)cc(O)c12 [CHM-3, 5-Hydroxy-7-(4-morpholin-4-yl-butoxy)-2-phenyl-chromen-4-one]	50 µg/mL (≈ 126 µM)	50 to 100 µg/mL (≈ 126 to 253 µM)	50 µg/mL (≈ 126 µM)	50 µg/mL (≈ 126 µM)	50 µg/mL (≈ 126 µM)	100 µg/mL (≈ 253 µM)	100 µg/mL (≈ 253 µM)	100 µg/mL (≈ 253 µM)	100 µg/mL (≈ 253 µM)	50 µg/mL (≈ 126 µM)	100 µg/mL (≈ 253 µM)	50 µg/mL (≈ 126 µM)	50 µg/mL (≈ 126 µM)	+ (Inhibition zone diameter ranging 10-20 mm was given a score of ^+)	++ (20-30 mm as ^++)	+ (Inhibition zone diameter ranging 10-20 mm was given a score of ^+)	++ (20-30 mm as ^++)	++ (20-30 mm as ^++)	zone of inhibition at 100 µg/disc (H. pylori [1]): 20 to 30 mm; MIC Range (H. pylori [2]; [14]): 50 to 100 µg/mL

Continued by falling MIC50 (H. pylori [2]), values first:

MIC50 (H. pylori [2]; 72 h)	MIC (H. pylori [2]; [3])	MIC50 (H. pylori [2])	MIC (H. pylori [2]; [4])	MIC (H. pylori [2]; [5])	MIC (H. pylori [2]; [6])	MIC (H. pylori [2]; [7])	MIC (H. pylori [2]; [8])	MIC (H. pylori [2]; [9])	MIC (H. pylori [2]; [10])	MIC (H. pylori [2]; [11])	MIC (H. pylori [2]; [12])	MIC (H. pylori [2]; [13])	SMILES	Inhibition zone diameter (score) (H. pylori [1]; ATCC standard strain 43504)	Inhibition zone diameter (score) (H. pylori [1]; ATCC standard strain 49503)	Inhibition zone diameter (score) (H. pylori [1]; ATCC standard strain 700392)	Inhibition zone diameter (score) (H. pylori [1]; clinical strain HP001)	Inhibition zone diameter (score) (H. pylori [1]; clinical strain HP002)	other results
		50 µg/mL (≈ 292 µM)		> 100 µg/mL	100 µg/mL (≈ 584 µM)	100 µg/mL (≈ 584 µM)	25 µg/mL (≈ 146 µM)	25 µg/mL (≈ 146 µM)	50 µg/mL (≈ 292 µM)	1.56 µg/mL (≈ 9.11 µM)	1.56 µg/mL (≈ 9.11 µM)	1.56 µg/mL (≈ 9.11 µM)	Cc1ncc([N+](=O)[O-])n1CCO [Metronidazole, reference compound]						
~25 µg/mL (≈ 73.7 µM)	6.25 to 25 µg/mL (≈ 18.4 to 73.7 µM)	25 µg/mL (≈ 73.7 µM)	25 µg/mL (≈ 73.7 µM)	25 µg/mL (≈ 73.7 µM)	12.5 µg/mL (≈ 36.8 µM)	12.5 µg/mL (≈ 36.8 µM)	25 µg/mL (≈ 73.7 µM)	25 µg/mL (≈ 73.7 µM)	50 µg/mL (≈ 147 µM)	12.5 µg/mL (≈ 36.8 µM)	25 µg/mL (≈ 73.7 µM)	50 µg/mL (≈ 147 µM)	CN(C)CCCOc1cc(O)c2c(=O)cc(-c3ccccc3)oc2c1 [CHN-2, 7-(3-Dimethylamino-propoxy)-5-hydroxy-2-phenyl-chromen-4-one]	++ (20-30 mm as ^++)	++ (20-30 mm as ^++)	+ (Inhibition zone diameter ranging 10-20 mm was given a score of ^+)	++ (20-30 mm as ^++)	++ (20-30 mm as ^++)	zone of inhibition at 100 µg/disc (H. pylori [1]): 20 to 30 mm; MIC Range (H. pylori [2]; [14]): 12.5 to 50 µg/mL
~12.5 µg/mL (≈ 32.9 µM)	6.25 to 100 µg/mL (≈ 16.5 to 264 µM)	12.5 µg/mL (≈ 32.9 µM)	25 µg/mL (≈ 65.9 µM)	25 µg/mL (≈ 65.9 µM)	< 12.5 µg/mL	< 12.5 µg/mL	< 12.5 µg/mL	< 12.5 µg/mL	12.5 µg/mL (≈ 32.9 µM)	100 µg/mL (≈ 264 µM)	25 µg/mL (≈ 65.9 µM)	25 µg/mL (≈ 65.9 µM)	O=c1cc(-c2ccccc2)oc2cc(OCCCN3CCCCC3)cc(O)c12 [CPP-2, 5-Hydroxy-2-phenyl-7-(3-piperidin-1-yl-propoxy)-chromen-4-one]	+ (Inhibition zone diameter ranging 10-20 mm was given a score of ^+)	+ (Inhibition zone diameter ranging 10-20 mm was given a score of ^+)	+ (Inhibition zone diameter ranging 10-20 mm was given a score of ^+)	+ (Inhibition zone diameter ranging 10-20 mm was given a score of ^+)	+ (Inhibition zone diameter ranging 10-20 mm was given a score of ^+)	
	0.016 to 0.0625 µg/mL (≈ 0.0438 to 0.171 µM)	0.032 µg/mL (≈ 0.0876 µM)	0.032 µg/mL (≈ 0.0876 µM)	0.032 µg/mL (≈ 0.0876 µM)	0.016 µg/mL (≈ 0.0438 µM)	0.016 µg/mL (≈ 0.0438 µM)	0.016 µg/mL (≈ 0.0438 µM)	0.016 µg/mL (≈ 0.0438 µM)	0.0625 µg/mL (≈ 0.171 µM)	0.032 µg/mL (≈ 0.0876 µM)	0.032 µg/mL (≈ 0.0876 µM)	0.0625 µg/mL (≈ 0.171 µM)	CC1(C)S[C@@H]2[C@H](NC(=O)[C@H](N)c3ccc(O)cc3)C(=O)N2[C@H]1C(=O)O [Amoxicillin, reference compound]						inhibition zone diameter (H. pylori [1]; clinical strains, 0.16 mg/disc): 10-16 mm; inhibition zone diameter (H. pylori [1]; standard strains, 0.5-1.0 mg/disc): 13-15 mm
